Measurements as given in patent US20230234941A1, “Salts of Compound and Pharmaceutical Compositions Containing the Same” (Shenzhen Forward Pharmaceuticals Co., Limited., priority 2020, published 2023).
In brackets after ≈: the same amount, converted by molar mass.

Tests used:
[1] = test system: EGFR activating mutation (such as exon 19 deletion activating mutation, L858R activating mutation, T790M drug resistance mutation and exon 20 insertion …); conditions: disclosed in CN105461695B; cited from earlier work
[2] = Chemical and physical stability of the salts at the end of the preparation; assay type: physicochemical
Source text: It is crucial for drug development whether the salts obtained as above have chemical and physical stability at the end of the preparation. The chemical and physical stability of the salts at the end of the preparation includes: […]

[3] = Solid storage stability test; assay type: physicochemical; conditions: for Original morphology / Original purity: original solid before storage; for chemical and physical stability after storage (summary): solid/25° C./60% RH/open/1 week and/or solid/60° C./closed container/1 week
Method: Each amorphous salt solid was weighed (two 2 mg samples were weighed for purity testing after solid storage stability study, and one 10 mg sample was weighed for XRPD testing after solid storage stability study) and placed in a glass vial. In a 25° C./60% RH solid storage stability test, the amorphous salt solid was placed in a 25° C./60% RH constant temperature and humidity chamber, and placed in the dark for 1 week (i.e. “solid/25° C./60% RH/open/1 week”), and in a 60° C. solid storage stability test, the amorphous salt solid was sealed in an oven at 60° C. and heated for 1 week in the dark (i.e. “solid/60° C./closed container/l week”). Then the sample was taken out for purity testing, crystal form detection and appearance observation, respectively.

[4] = Solid solubility test (2 h and 24 h); assay type: physicochemical; conditions: for Solubility measured at 2 h: 37° C., based on free base; for XRPD measured at 2 h: state of sample / solid fraction
Method: samples were weighed for each amorphous salt solid (equivalent to 20 mg of free base), and 10 mL of the following solvents were respectively added: 0.1N HCl solution (pH 1.0), 50 mM phosphate buffer (pH 4.5), FeSSIF-V1 (pH 5.0), FaSSIF-V1 (pH 6.5) and SGF (pH 2.0), […] The suspension was then centrifuged at 37° C., the supernatant was measured for solubility by HPLC, and the solid fraction was measured for XRPD. The target solubility was at least 2 mg (based on free base)/mL.

[5] = listed as 1 eq. hydrobromide salt
[6] = listed as crystalline 1 eq. hydrobromide salt
[7] = Test BS1: solid/25° C./60% RH/open/1 week
[8] = solid/60° C./closed container/1 week (Test BS1)
[9] = FaSSIF-V1 (pH 6.5) (Test ES4, partly printed ES1)
[10] = Test ES1: 0.1N HCl solution (pH 1.0)
[11] = Test ES2: 50 mM phosphate buffer (pH 4.5)
[12] = listed as amorphous 1 eq. besylate salt
[13] = listed as amorphous 1 eq. esylate salt
[14] = listed as 2 eq. hydrochloride salt
[15] = listed as amorphous 2 eq. hydrochloride salt

Structure (SMILES)	Purity [3, 7] [%]	Original morphology [3]	Original purity [3] [%]	Purity [3, 8] [%]	pH measured at 2 h [4, 9]	Solubility measured at 2 h [4, 9] [µg/mL]	pH measured at 2 h [4, 10]	Solubility measured at 2 h [4, 10] [µg/mL]	XRPD measured at 2 h [4, 10]	pH measured at 2 h [4, 11]	Solubility measured at 2 h [4, 11] [µg/mL]	XRPD measured at 2 h [4, 11]	pH measured at 2 h ([4]; Test ES3: FeSSIF-V1 (pH 5.0))	Solubility measured at 2 h ([4]; Test ES3: FeSSIF-V1 (pH 5.0)) [µg/mL]	XRPD measured at 2 h ([4]; Test ES3: FeSSIF-V1 (pH 5.0))	pH measured at 2 h ([4]; Test ES5: SGF (pH 2.0))	Solubility measured at 2 h ([4]; Test ES5: SGF (pH 2.0)) [µg/mL]	XRPD measured at 2 h ([4]; Test ES5: SGF (pH 2.0))	XRPD measured at 2 h [4, 9]	further results
C=CC(=O)Nc1cc(Nc2ncnc(-c3cn(C)c4ccccc34)n2)c(OC)cc1N(C)CCN(C)C [compound of formula (I)]	–	–	–	–	–	–	–	–	–	–	–	–	–	–	–	–	–	–	–	inhibitory activity against EGFR activating mutation compared with wild-type EGFR (WT EGFR) [1]: significantly higher
C=CC(=O)Nc1cc(Nc2ncnc(-c3cn(C)c4ccccc34)n2)c(OC)cc1N(C)CCN(C)C [Example 10]	99.9	crystalline	99.9	99.9	(6.4)	700 (≈ 1.4 mM)	(0.8)	>2000	clear solution	(4.4)	>2000	clear solution	(4.8)	>2000	clear solution	(1.9)	>2000	clear solution	–	chemical and physical stability at the end of the preparation [2, 5]: chemically and physically stable; chemical and physical stability at the end of the preparation [2, 6]: chemically and physically stable; chemical and physical stability after storage (summary) [3, 5]: chemically and physically stable; chemical and physical stability after storage (summary) [3, 6]: chemically and physically stable; physical and chemical stability under storage (in words) ([3]; solid/25° C./60% RH/open/1 week, listed as crystalline 1 eq. hydrobromide salt): good physical and chemical stability; physical and chemical stability under storage (in words) ([3]; solid/60° C./closed container/1 week, listed as crystalline 1 eq. hydrobromide salt): good physical and chemical stability
C=CC(=O)Nc1cc(Nc2ncnc(-c3cn(C)c4ccccc34)n2)c(OC)cc1N(C)CCN(C)C [Example 6]	98.2	amorphous	99.7	99.6	(6.5)	>2000	(0.7)	>2000	clear solution	(4.5)	>2000	clear solution	(4.8)	>2000	clear solution	(2.1)	>2000	clear solution	clear solution	chemical and physical stability at the end of the preparation ([2]; listed as 1 eq. besylate salt): chemically and physically stable; chemical and physical stability at the end of the preparation [2, 12]: chemically and physically stable; decrease in purity ([3]; solid/25° C./60% RH/open/1 week): about 2%; chemical and physical stability after storage (summary) ([3]; listed as 1 eq. besylate salt): chemically unstable; chemical and physical stability after storage (summary) [3, 12]: chemically unstable; physical and chemical stability under storage (in words) ([3]; solid/60° C./closed container/1 week, listed as amorphous 1 eq. besylate salt): good physical and chemical stability
C=CC(=O)Nc1cc(Nc2ncnc(-c3cn(C)c4ccccc34)n2)c(OC)cc1N(C)CCN(C)C [Example 8]	99.9	amorphous	99.8	99.8	(6.4)	>2000	(0.8)	>2000	clear solution	(4.4)	>2000	clear solution	(4.8)	>2000	clear solution	(1.9)	>2000	clear solution	clear solution	chemical and physical stability at the end of the preparation ([2]; listed as 1 eq. esylate salt): chemically and physically stable; chemical and physical stability at the end of the preparation [2, 13]: chemically and physically stable; chemical and physical stability after storage (summary) ([3]; listed as 1 eq. esylate salt): physically unstable; chemical and physical stability after storage (summary) [3, 13]: physically unstable; physical and chemical stability under storage (in words) ([3]; solid/25° C./60% RH/open/1 week, listed as amorphous 1 eq. esylate salt): significant hygroscopicity (caking and fusion to a glassy state); physical and chemical stability under storage (in words) ([3]; solid/60° C./closed container/1 week, listed as amorphous 1 eq. esylate salt): good physical and chemical stability
C=CC(=O)Nc1cc(Nc2ncnc(-c3cn(C)c4ccccc34)n2)c(OC)cc1N(C)CCN(C)C [Example 3]	99.6	amorphous	99.9	99.6	(6.1)	>2000	(0.71	>2000	clear solution	(4.2)	>2000	clear solution	(4.8)	>2000	clear solution	(1.8)	>2000	clear solution	clear solution	chemical and physical stability at the end of the preparation [2, 14]: chemically and physically stable; chemical and physical stability at the end of the preparation [2, 15]: chemically and physically stable; chemical and physical stability after storage (summary) [3, 14]: physically unstable; chemical and physical stability after storage (summary) [3, 15]: physically unstable; physical and chemical stability under storage (in words) ([3]; solid/25° C./60% RH/open/1 week, listed as amorphous 2 eq. hydrochloride salt): slight color change and showed a certain hygroscopicity (partial agglomeration); physical and chemical stability under storage (in words) ([3]; solid/60° C./closed container/1 week, listed as amorphous 2 eq. hydrochloride salt): good physical and chemical stability
